The text below walks through data of a melting point compilation (Tetko et al.; mined from patent text by program, amines drawn as free bases though some values may be those of a salt).

Each structure is given as a SMILES string.

Turning to `O=C(O)CSc1c(-c2cc(Cl)ccc2O)c2cc(C(F)(F)F)ccc2[nH]c1=O`, the melting point was 235 °C.
Consider `COc1ccc(-c2cccc(O)c2)cc1`, for which the melting point is 76.5 to 78 °C.
In turn, `Cc1c(Cc2cccc3ccccc23)c(=O)oc2cc(O)cc(O)c12` displayed a melting point of 275 to 280 °C.
`NS(=O)(=O)c1cc(C=O)co1` displayed a melting point of 281 to 284 °C.
On to `Nc1c(F)c(N2CCC(CC3(N)CC3)C2)c(F)c2c1c(=O)c(C(=O)O)cn2C1CC1F` (centres undefined), for which the melting point was in the range of 185 to 193 °C.
The same measure for `O=C(O)c1ccc(Cl)c(S(=O)(=O)NC2CCCCCCC2)c1`: 134 °C; for `COc1cccc([Si](C)(C)COc2cc(C(C)(C)C)c(O)c(C(C)(C)C)c2)c1OC`: 94.5 to 96 °C; for `CC(Nc1nnc(-c2ccsc2)c2ccccc12)c1ccccc1` (centres undefined): 144 to 146 °C.
`O=C(Nc1ccc2cc(CN3CCCC3)ccc2c1)N1CCC(c2ccccc2)CC1`: the melting point is 193 to 195 °C.
In turn, `CC1(C)Oc2c(N)ccc(Cl)c2C1=O` registered a melting point of 71 to 73 °C.
In turn, `CC(C)Nc1ccc([N+](=O)[O-])cc1C(=O)c1ccccc1` had a melting point of 155 °C.
As for `COc1ccc2cc(S(=O)(=O)Cc3ccc(OC)c([N+](=O)[O-])c3)c(=O)oc2c1`, the melting point lay in the range of 250 to 252 °C.
As to `O=C(O)c1cc(-c2ccc(C(F)(F)F)cc2)cnc1O`, the melting point lay within 305 to 315 °C.
For `O=C(Nc1ccc(Oc2ccnc(NC3(CO)CCCC3)n2)c2ccccc12)c1cc(F)cc(N2CCOCC2)c1`, the melting point is 115 to 117 °C.
`COc1ccccc1Nc1ncc(C(=O)O)c(=O)[nH]1` came in with a melting point of 251 to 253 °C.
As for `COC(=O)C(=NOCc1ccccc1)C(C)=O`, the melting point fell in the range of 35 to 36 °C.
The same measure for `O=C1C[C@@H]2O[C@@H](CS(=O)(=O)c3ccccc3)CN12` (racemic): 144 to 146 °C.
As to `NS(=O)(=O)c1ccc(-c2ccccc2-c2ccc(C(F)(F)F)cc2)cc1`, the melting point was determined as 188 °C.
Take `Fc1ccc(F)c(-n2nnc3cccnc32)c1`: the melting point is 140 °C.
Take `NC(=O)C(N)N=Nc1ccccc1C(=O)c1ccccn1` (centres undefined): the melting point was in the range of 210 to 212 °C.
As to `O=C(O)C(CCc1ccc2c(c1)CCO2)NC(=O)C(F)(F)F` (centres undefined), the melting point was determined as 125 °C.
The same measure for `OC(Cc1nc[nH]n1)(Cc1nc[nH]n1)c1ccc(Cl)cc1Cl`: 182 to 185 °C; for `CCN(CC)CC(=O)c1cc(C(=O)c2ccc3ccccc3c2)cn1C`: 130 to 132 °C.
As for `CCc1nc(C)n(COCc2ccccc2)c1Sc1ccccc1`, the melting point was in the range of 156 to 159 °C.
`CCc1noc(-c2cn(-c3cccc(Oc4ccc(N)cc4)c3)cn2)n1` came in with a melting point of 131 to 133 °C.
In the case of `O=C(O)c1cccc(C(=O)C=Cc2ccc(Cl)c(Cl)c2)c1O`, the melting point is above 250 °C.
In turn, `COc1ccccc1N1CCN(CCCNC(=O)c2cc(N)cc3c(=O)c(C)c(-c4ccccc4)oc23)CC1` registered a melting point of 218 to 219 °C.
`CON(c1ccc([N+](=O)[O-])cc1C#N)S(=O)(=O)c1ccc(C)cc1`: the melting point lay in the range of 148 to 150 °C.
Compound `COc1nc(N)ccc1C(=O)CCC1CCN(CC2CCCCC2)CC1` had a melting point of 73.2 °C.
In the case of `Cc1cnc(N2CCNCC2)c2ccoc12`, the melting point is 112 °C.
`CC(C)CC(=Cc1ccccc1)C(=O)O` returned a melting point of 66 to 67.5 °C.
`Cc1sc(-c2ccccc2)nc1COc1cc(COc2ccccc2CC(=O)O)on1` showed a melting point of 147 to 148 °C.
In turn, `CC(C)c1nc(-c2cccs2)cc(-c2ccc(F)cc2)c1C=O` returned a melting point of 123 to 125 °C.
`CC(=O)c1ccc2c(c1)C(Cc1ccccc1)=CC(=CCl)CO2`: the melting point fell in the range of 89 to 94 °C.
In the case of `CCCCCCCc1cc(O)cc(O)c1C(=O)OCc1ccccc1`, the melting point was found to be 104 °C.
The same measure for `O=Cc1ccnc2c1NC(=O)c1cccnc1N2C1CC1`: 220 to 222 °C; for `COc1ccc(S(=O)(=O)Nc2cccnc2Nc2ccccc2F)cc1`: 148 to 150 °C; for `COc1ccc(C(C)(C)OC)cc1CN[C@H]1C2CCN(CC2)[C@H]1C(c1ccccc1)c1ccccc1`: 127 °C.
Under `CCOC(=O)CCCn1c(=O)c2sc(N)nc2n(C)c1=O` stands 170 to 171 °C.
The compound `COC(=O)c1ccccc1S(=O)(=O)NCC#N` gave a melting point of 110 °C.
The same measure for `Cc1nn(-c2ccc(NC=C3C(=O)NC(=O)c4ccc(Br)cc43)cc2)c(C)c1Cl`: 290 to 291 °C; for `COc1cc(N2CCN(C)CC2)ccc1Nc1ncc2cc3ccccc3n2n1`: 150 to 153 °C.
Consider `Cc1[nH]c(-c2ccccc2)c(N)c1C(=O)C(C)C`, for which the melting point was 180 to 183 °C.
In the case of `CC(C)(N)CSCCO`, the melting point was in the range of 49 to 51 °C.
The compound `COC(=O)c1cc([N+](=O)[O-])c(N)c(F)c1F` had a melting point of 184 °C.
Under `NC(=O)c1c(-c2ccc(Cl)cc2)csc1N` stands 150 to 151 °C; under `C#CCCCOc1c(C)cc(C(=O)O)cc1C`, 129 to 130 °C.
Compound `O=C1CSCc2cc(Cl)ccc21` registered a melting point of 79.5 to 82 °C.
`O=c1c2c(c1=O)Nc1c(Cl)cc(C(F)(F)F)cc1N2`: the melting point lay in the range of 335 to 337 °C.
Turning to `COC(=O)[C@H]1Cc2c([nH]c3ccccc23)[C@@H](c2ccc3c(c2)OCO3)N1`, the melting point is 154 to 155 °C.
Turning to `O=c1cc(OCc2ccccc2)cc(CC(O)c2ccc(OCc3ccccc3)c(OCc3ccccc3)c2)o1` (centres undefined), the melting point lay in the range of 109 to 110 °C.
As to `CCCN(CCC)C1Cc2cc3c(=O)[nH][nH]c(=O)c3cc2C1`, the melting point was above 300 °C.
As for `COc1cc(CNC(=O)c2nc3cn(CCCc4ccccc4)nc3c(=O)[nH]2)ccc1F`, the melting point lay within 137 to 140 °C.
`CNc1ccc(Cl)cc1-c1cc2ccccc2[nH]1`: the melting point fell in the range of 123 to 126 °C.
The same measure for `O=C(NCC1(c2ccccc2)CCCCC1)Nc1cccc(Cl)c1Cl`: 214 to 215 °C; for `COCCOC1CCN(c2ccc(NC(=O)c3cnn(-c4ccc(Cl)cc4)c3C)cc2C#N)CC1`: 180 to 182 °C.
Consider `O=Cc1ccc2cc(O)ccc2c1`, for which the melting point is 154 to 156 °C.
`CCC1(C)NC(=O)C(c2c(C)cc(C)cc2C)C1=O` (centres undefined) gave a melting point of 137 to 142 °C.
For `CC1CC2C3CCC4CC(O)CCC4(C)C3C(O)CC2(C)C1C1(C)OCCO1` (centres undefined), the melting point was in the range of 109 to 111 °C.
Compound `CCCCOc1ccc(CC(=O)N[C@@H](C(=O)OCc2ccccc2)[C@@H](C)O)cc1` displayed a melting point of 80 to 83 °C.
Turning to `CC(Oc1ncn(-c2cc(Cl)cc(Cl)c2)n1)C(=O)O` (centres undefined), the melting point was in the range of 230 to 231 °C.
As for `C=CCn1c(=O)ccc2cc(F)c(-n3c(=O)cc(C(F)(F)F)n(C)c3=O)cc21`, the melting point was in the range of 178 to 179 °C.
The same measure for `COC(=O)c1cccc2c1c1c(O)c3c(cc1n2Cc1ccccc1)CCCC3`: 174 to 176 °C; for `CC(=O)Nc1ccc(C(C)(C)C)cc1[N+](=O)[O-]`: 109 to 110 °C.
As to `CC(=O)SCC(CC(C)C)C(=O)NCCN1CCOCC1` (centres undefined), the melting point lay in the range of 54 to 59 °C.
Take `COc1ccc2c(c1)CCc1cc(OC)ccc1N2`: the melting point fell in the range of 123 to 124 °C.
`CCOC(=O)CSc1cc(Cl)nc(Nc2cccc(C)c2C)n1`: the melting point was 114 to 116 °C.
`Cc1c(O)c(C(C)(C)C)c(Cc2cc(C(C)(C)C)c(O)c(C(C)(C)C)c2)c(C)c1Cc1cc(C(C)(C)C)c(O)c(C(C)(C)C)c1` showed a melting point of 140 °C.
With `N#CCCNC(=O)c1cccc(-c2cccc3nn(Cc4cccc(Cl)c4)cc23)c1`, the melting point lay in the range of 185 to 186 °C.
Regarding `CC1(C)CCOC1=C(Oc1ccc(Cl)cc1)n1ccnc1`, the melting point lay in the range of 85 to 88 °C.
On to `COc1ccc(C=NO)cc1OCCCCCc1ccccc1`, for which the melting point is 65 to 67 °C.
For `O=S(=O)(NCC1CCN(C[C@H]2COc3ccc4[nH]ccc4c3O2)CC1)c1ccccn1`, the melting point was 86 to 88 °C.
As to `CC(=O)NC(Cc1csc2ccccc12)C(CCc1cc(C(F)(F)F)cc(C(F)(F)F)c1)=NO` (centres undefined), the melting point was in the range of 200 to 201 °C.
The same measure for `CC(=O)c1cccc(OCCCCCC(=O)O)c1`: 70 to 72 °C; for `CC1(C)CC(=O)C(SCc2ccc([N+](=O)[O-])cc2)=C(O)C1`: 140 to 142 °C; for `Cc1cccc(C(=O)NC(CC(C)C)C(=O)O)c1SSc1c(C)cccc1C(=O)NC(CC(C)C)C(=O)O` (centres undefined): 210 to 211 °C.
In turn, `COc1cc(-c2nnc(C)s2)cc2oc(=O)c(Cl)c(C)c12` displayed a melting point of 176 to 177 °C.
The compound `N#Cc1ccnc(C(N)=O)c1N` gave a melting point above 310 °C.
Turning to `Cc1ccc(N(c2ccc(-c3ccc(N(c4ccccc4)c4cccc(C)c4)cc3)cc2)c2ccc3ccc4cccc5ccc2c3c45)cc1`, the melting point was 172 to 173 °C.
The compound `CCOc1ccc(CN2C(=O)SC(S(=O)(=O)c3ccc(C)cc3)C2=O)c(OCC)c1` (centres undefined) yielded a melting point of 121 to 123 °C.
`COc1ccc2nc(-c3ccc(N)cc3)sc2c1`: the melting point is 191 to 193 °C.
Regarding `CCOC(=O)Nc1cc(OC(C)C)c(Cl)cc1F`, the melting point was 89 to 91 °C.
Compound `CO[C@@H]1[C@@H](OC)[C@H](C)O[C@@H](OC(=S)Nc2ccc(-c3nccn3-c3ccc(OC(F)(F)F)cc3)cc2)[C@@H]1OC` showed a melting point of 129 °C.
The compound `CCCc1nc2c(N)nc3ccccc3c2n1CCCC(=O)N1CCOCC1` yielded a melting point of 200 to 202 °C.
Under `OCC(O)Cc1nccn1CCCc1cccc(OCc2coc(/C=C/c3ccc(C(F)(F)F)cc3)n2)c1` (centres undefined) stands 102 to 104 °C; under `CCCCCCC(C)(Sc1cc(C(C)(C)C)c(O)c(C(C)(C)C)c1)Sc1cc(C(C)(C)C)c(O)c(C(C)(C)C)c1`, 130 to 133 °C.
The same measure for `CC(C)Oc1ccccc1-c1ncc(C(=O)O)c(=O)[nH]1`: 191 to 193 °C; for `Cc1ccc(-c2cc(OCC(=O)N3CCOCC3)c3c(C(F)(F)F)cccc3n2)cc1`: 172 °C.
`Cc1cccc(NC(=O)NCC(=O)N(CC(=O)OC(C)(C)C)c2ccc([N+](=O)[O-])cc2)c1`: the melting point was 152 °C.

By melting point is commonly meant the temperature of the solid-liquid transition.
